Test results taken from patent US20130225830A1, “POLYMORPHS OF FEBUXOSTAT” (MAPI PHARMA LIMITED, priority 2010, published 2013).

How the values were obtained:
Format in all cases: physicochemical
[1] = Hygroscopicity measurements (DVS sorption/desorption profiles); conditions: 25° C.
[2] = Bulk and tapped density measurements
Outline: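 Febuxostat forms passed through a 1.0 mm screen, weighed into a 10 mL graduated cylinder and leveled without compacting. Bulk density = mass/unsettled volume. Tapped density = mass/final volume after 500 then 750 further taps, Vb accepted when within 2% of Va.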

[3] = Aqueous solubility measurements; conditions: for pH: final pH of saturated solution
Outline: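 Febuxostat form shaken 24 h at 25° C in water, USP buffers pH 1.2-7.4, 0.01/0.1 N HCl, SGF, FaSSIF (pH 6.5) or FeSSIF (pH 5.0). Saturated solution filtered and filtrate concentration measured by HPLC, final pH recorded; duplicates.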

[4] = Physical stability measurements (XRPD, DSC, TGA)
Procedure: Testing conditions: 40° C., 60° C., 40° C./RH 75%, 60° C./RH 75%, light
Testing procedure: About 50 mg of a febuxostat form were weighed in glass vial for testing the physical stability and were stored under different conditions for 1 week and 2 weeks, separately. The same febuxostat form was stored at −20° C. as control. XRPD, DSC and TGA of each of the febuxostat forms were measured at the end of the first and second weeks.

[5] = media 0.01N HCl, 24 hours at 25° C.
[6] = media 0.1N HCl, 24 hours at 25° C.
[7] = media FaSSIF, 24 hours at 25° C.
[8] = media FeSSIF, 24 hours at 25° C.
[9] = media pH 1.2 (USP), 24 hours at 25° C.
[10] = media pH 4.5 (USP), 24 hours at 25° C.
[11] = media pH 6.8 (USP), 24 hours at 25° C.
[12] = media pH 7.4 (USP), 24 hours at 25° C.
[13] = media water, 24 hours at 25° C.

## Cc1nc(-c2ccc(OCC(C)C)c(C#N)c2)sc1C(=O)O [Form XI, 2-(3-cyano-4-isobutoxyphenyl)-4-methyl-5-thiazolecarboxylic acid]
[1]; 0-90% relative humidity
  Hygroscopicity classification: hygroscopic
[1]; Target % P/P0 0.0
  Change in Mass (%) - ref, Desorption: −0.052%
  Change in Mass (%) - ref, Sorption: 0.001%
[1]; Target % P/P0 10.0
  Change in Mass (%) - ref, Desorption: 0.973%
  Change in Mass (%) - ref, Hysteresis: 0.164%
  Change in Mass (%) - ref, Sorption: 0.810%
[1]; Target % P/P0 20.0
  Change in Mass (%) - ref, Desorption: 1.210%
  Change in Mass (%) - ref, Hysteresis: 0.146%
  Change in Mass (%) - ref, Sorption: 1.064%
[1]; Target % P/P0 30.0
  Change in Mass (%) - ref, Desorption: 1.425%
  Change in Mass (%) - ref, Hysteresis: 0.203%
  Change in Mass (%) - ref, Sorption: 1.222%
[1]; Target % P/P0 40.0
  Change in Mass (%) - ref, Desorption: 1.560%
  Change in Mass (%) - ref, Hysteresis: 0.150%
  Change in Mass (%) - ref, Sorption: 1.410%
[1]; Target % P/P0 50.0
  Change in Mass (%) - ref, Desorption: 1.728%
  Change in Mass (%) - ref, Hysteresis: 0.169%
  Change in Mass (%) - ref, Sorption: 1.559%
[1]; Target % P/P0 60.0
  Change in Mass (%) - ref, Desorption: 1.948%
  Change in Mass (%) - ref, Hysteresis: 0.166%
  Change in Mass (%) - ref, Sorption: 1.782%
[1]; Target % P/P0 70.0
  Change in Mass (%) - ref, Desorption: 2.187%
  Change in Mass (%) - ref, Hysteresis: 0.130%
  Change in Mass (%) - ref, Sorption: 2.057%
[1]; Target % P/P0 80.0
  Change in Mass (%) - ref, Desorption: 2.503%
  Change in Mass (%) - ref, Hysteresis: 0.089%
  Change in Mass (%) - ref, Sorption: 2.414%
[1]; Target % P/P0 90.0
  Change in Mass (%) - ref, Desorption: 3.111%
  Change in Mass (%) - ref, Sorption: 3.111%
[2]
  Bulk Density: 0.346 g/mL
  Tapped Density: 0.553 g/mL
[2]; compared among forms V, IX, XI and form G
  bulk and tapped densities (in words): adequate bulk and tapped densities
[3]; [5]
  pH: 1.981
  Visual solubility: few particles
[3]; [6]
  pH: 0.967
  Visual solubility: few particles
[3]; [7]
  pH: 6.336
  HPLC solubility: 521.19 µg/mL
  Visual solubility: Turbid + few particles
[3]; [8]
  pH: 4.998
  HPLC solubility: 149.95 µg/mL
  Visual solubility: Turbid + few particles
[3]; media SGF, 24 hours at 25° C.
  pH: 2.114
  Visual solubility: few particles
[3]; [9]
  pH: 1.132
  Visual solubility: few particles
[3]; [10]
  pH: 4.479
  HPLC solubility: 0.49 µg/mL
  Visual solubility: few particles
[3]; [11]
  pH: 6.684
  HPLC solubility: 931.90 µg/mL
  Visual solubility: Turbid + few particles
[3]; [12]
  pH: 6.905
  HPLC solubility: 4464.94 µg/mL
  Visual solubility: Slightly turbid + few
[3]; media water, shaken 24 hours at 25° C.
  pH: 8.106
[3]; [13]
  HPLC solubility: 33.82 µg/mL
  Visual solubility: Turbid + few particles
[3]; pH1.2 USP buffer, 0.01N HCl, 0.1N HCl and SGF
  aqueous solubility (in words): poor solubility
[3]; pH6.8 USP buffer, pH7.4 USP buffer, FaSSIF, FeSSIF
  aqueous solubility (in words): good solubility
[4]; 40° C., 60° C. and light at the end of the first and second week
  physical stability (XRPD, DSC, TGA): stable
[4]; 40° C./75% RH at the end of the first week
  physical stability (XRPD, DSC, TGA), form conversion: completely converted to form G
[4]; 40° C./75% RH at the end of the second week
  physical stability (XRPD, DSC, TGA), form conversion: completely converted to form G
[4]; 60° C./75% RH at the end of the first and second weeks
  physical stability (XRPD, DSC, TGA), form conversion: completely converted to form G
